The results in this text go back to patent US20220169654A1, “New Organic Compounds” (Servier Pharmaceuticals LLC, priority 2020, published 2022).

The target in one test is T1, MAT2A homodimer (Homo sapiens, UniProt P31153).
T1 construct: inferred from Ni sepharose purification with imidazole elution; made in house; host or cells: Sf9 insect cells, baculovirus (Bac to Bac, pFASTBAC1)
Kind of test: MAT2A inhibition (biochemical, liberated phosphate, PiColorLock Gold). The note with it: recombinant MAT2A homodimer; IC50 bin with Max Inh.; read-out: Enzyme Inhibition Bin. In a few lines:
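Baculovirus/Sf9-expressed, Ni-purified MAT2A (4 μg/mL) preincubated with compound 60 min at 25 °C in Tris pH 8.0/KCl/MgCl2 buffer. Reaction started with 500 μM ATP and 400 μM L-methionine (substrate-mix concentrations), run 60 min at 25 °C. Phosphate measured colorimetrically against a phosphate standard curve to give IC50.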

The subject of another test is HCT116 MTAP+/+. The test is described as follows: Inhibition of cellular proliferation, 4 days, Cell Titer Glo, HCT116 MTAP+/+. The settings on record: Homo sapiens, HCT-116, 96 h, IC50 bin with Max Inh., read-out: 4 Day Relative Growth Inhibition (MTAP +/+). In kind it is cell-based. The procedure, abridged:
(§1)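 Isogenic HCT116 pair differing only in MTAP status, plated 24 h before treatment with 10-point 3-fold dilutions; 4 days at 37° C./5% CO2. Cell Titer Glo luminescence, blank-subtracted and normalised to 0.2% DMSO control, gives percentage proliferation vs log molar concentration for IC50.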
On the technique in general: Cellular ATP, detected with luciferase, serves as a proxy for viable cell number.

The next test concerns HCT116 MTAP−/−. Kind of test: Inhibition of cellular proliferation, 4 days, Cell Titer Glo, HCT116 MTAP−/−. In kind it is cell-based. The note with it: Homo sapiens, HCT-116, 96 h, IC50 bin with Max Inh., read-out: 4 Day Relative Growth Inhibition (MTAP −/−). In a few lines:
as §1

Test [1] deals with SAM in HCT116 human colon carcinoma cell line with MTAP gene deleted (MTAP −/−). Kind of test: Cellular assay of target engagement (SAM), LC-MS/MS, 72 hrs. In kind it is cell-based. The settings on record: HCT-116, IC50 bin with Max Inh., read-out: Cell 72 h SAM Inhibition (MTAP −/−). The procedure, abridged:
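MTAP-deleted HCT116 cells plated 24 h, then given 10-point 3-fold dilutions for 72 hrs at 37° C. Intracellular SAM extracted in cold 80% methanol with 1M acetic acid and d3-SAM standard, quantified by LC-MS/MS (MRM m/z 399.2→250.1); IC50 derived.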

Some results are limits rather than exact numbers.

T1 sequence (P31153 whole entry): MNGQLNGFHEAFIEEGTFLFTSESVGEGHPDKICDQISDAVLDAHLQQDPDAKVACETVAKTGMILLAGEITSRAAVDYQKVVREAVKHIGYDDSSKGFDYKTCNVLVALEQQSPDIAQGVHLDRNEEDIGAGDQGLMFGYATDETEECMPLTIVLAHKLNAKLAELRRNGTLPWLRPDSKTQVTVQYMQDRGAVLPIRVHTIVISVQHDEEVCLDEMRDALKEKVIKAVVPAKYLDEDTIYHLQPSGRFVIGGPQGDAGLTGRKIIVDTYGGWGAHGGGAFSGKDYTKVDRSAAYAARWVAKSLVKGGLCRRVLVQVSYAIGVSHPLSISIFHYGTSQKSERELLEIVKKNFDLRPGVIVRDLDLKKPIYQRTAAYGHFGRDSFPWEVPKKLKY

`Cc1ccc(-c2c(=O)n(-c3ccc4nn(C)cc4c3)nc3cnn(CC4CC4)c23)cn1` [Example 222, 1-(cyclopropylmethyl)-5-(2-methyl-2H-indazol-5-yl)-7-(6-methylpyridin-3-yl)-1,5-dihydro-6H-pyrazolo[4,3-c]pyridazin-6-one]: the IC50 was below 100 nM at MAT2A homodimer, above 1000 nM in the test with HCT116 MTAP+/+, 100 to 1000 nM in the test with HCT116 MTAP−/− and 100 to 1000 nM in test [1].
In the case of `Cn1cc(-n2nc3ccn(CC4CC4)c3c(-c3ccc(OC(F)F)cc3)c2=O)ccc1=O` [Example 223, 5-(cyclopropylmethyl)-4-(4-(difluoromethoxy)phenyl)-2-(1-methyl-6-oxo-1,6-dihydropyridin-3-yl)-2,5-dihydro-3H-pyrrolo[3,2-c]pyridazin-3-one], the IC50 on MAT2A homodimer is below 100 nM; in the test with HCT116 MTAP+/+, 100 to 1000 nM; with HCT116 MTAP−/−, 100 to 1000 nM; in test [1], below 100 nM.
For `O=c1c(-c2ccc(OC(F)F)cc2)c2c(ccn2CC2CC2)nn1-c1ccc2ncsc2c1` [Example 224, 2-(benzo[d]thiazol-6-yl)-5-(cyclopropylmethyl)-4-(4-(difluoromethoxy)phenyl)-2,5-dihydro-3H-pyrrolo[3,2-c]pyridazin-3-one], the IC50 on MAT2A homodimer is below 100 nM; in the test on HCT116 MTAP+/+ it was 100 to 1000 nM; in the test with HCT116 MTAP−/−, below 100 nM; in test [1], below 100 nM.
Take `O=c1c(-c2ccc(OC(F)F)cc2)c2c(ccn2CC2CC2)nn1-c1ccc2ncccc2c1` [Example 225, 5-(cyclopropylmethyl)-4-(4-(difluoromethoxy)phenyl)-2-(quinolin-6-yl)-2,5-dihydro-3H-pyrrolo[3,2-c]pyridazin-3-one]: the IC50 on MAT2A homodimer was below 100 nM; in the test on HCT116 MTAP+/+ it was 100 to 1000 nM; in the test with HCT116 MTAP−/− it was below 100 nM; in test [1], below 100 nM.
With `O=c1c(-c2ccc(OC(F)F)cc2)c2c(ccn2CC2CC2)nn1-c1ccncc1` [Example 226, 5-(cyclopropylmethyl)-4-(4-(difluoromethoxy)phenyl)-2-(pyridin-4-yl)-2,5-dihydro-3H-pyrrolo[3,2-c]pyridazin-3-one], the IC50 is below 100 nM at MAT2A homodimer, 100 to 1000 nM with HCT116 MTAP+/+, below 100 nM with HCT116 MTAP−/− and below 100 nM in test [1].
Consider `CN1CCOc2ccc(-n3nc4ccn(CC5CC5)c4c(-c4ccc(OC(F)F)cc4)c3=O)cc21` [Example 227, 5-(cyclopropylmethyl)-4-(4-(difluoromethoxy)phenyl)-2-(4-methyl-3,4-dihydro-2H-benzo[b][1,4]oxazin-6-yl)-2,5-dihydro-3H-pyrrolo[3,2-c]pyridazin-3-one], for which the IC50 was below 100 nM on MAT2A homodimer, 100 to 1000 nM in the test on HCT116 MTAP+/+, below 100 nM with HCT116 MTAP−/− and below 100 nM in test [1].
As for `Nc1ccc(-n2nc3ccn(CC4CC4)c3c(-c3ccc(OC(F)F)cc3)c2=O)cc1` [Example 228, 2-(4-aminophenyl)-5-(cyclopropylmethyl)-4-(4-(difluoromethoxy)phenyl)-2,5-dihydro-3H-pyrrolo[3,2-c]pyridazin-3-one], the IC50 at MAT2A homodimer is below 100 nM; in the test on HCT116 MTAP+/+, above 1000 nM; with HCT116 MTAP−/− it was above 1000 nM; in test [1], 100 to 1000 nM.
On to `COc1ccc(-n2nc3ccn(CC4CC4)c3c(-c3ccc(OC(F)F)cc3)c2=O)cc1` [Example 229, 5-(cyclopropylmethyl)-4-(4-(difluoromethoxy)phenyl)-2-(4-methoxyphenyl)-2,5-dihydro-3H-pyrrolo[3,2-c]pyridazin-3-one], for which the IC50 is below 100 nM on MAT2A homodimer, 100 to 1000 nM in the test on HCT116 MTAP+/+, below 100 nM in the test with HCT116 MTAP−/− and below 100 nM in test [1].
On to `COC1CC=C(n2nc3ccn(CC4CC4)c3c(-c3ccc(OC(F)F)cc3)c2=O)CC1` (stereo not shown) [Example 230, 5-(cyclopropylmethyl)-4-(4-(difluoromethoxy)phenyl)-2-(4-methoxycyclohex-1-en-1-yl)-2,5-dihydro-3H-pyrrolo[3,2-c]pyridazin-3-one], for which the IC50 on MAT2A homodimer was below 100 nM; with HCT116 MTAP+/+, above 1000 nM; in the test on HCT116 MTAP−/− it was 100 to 1000 nM; in test [1] it was 100 to 1000 nM.
Consider `O=c1c(-c2ccc(OC(F)F)cc2)c2c(ccn2CC2CC2)nn1-c1cn[nH]c1` [Example 231, 5-(cyclopropylmethyl)-4-(4-(difluoromethoxy)phenyl)-2-(1H-pyrazol-4-yl)-2,5-dihydro-3H-pyrrolo[3,2-c]pyridazin-3-one], for which the IC50 on MAT2A homodimer is below 100 nM; in the test on HCT116 MTAP+/+ it was above 1000 nM; in the test with HCT116 MTAP−/−, 100 to 1000 nM; in test [1], 100 to 1000 nM.
Regarding `Cn1cc2cc(-n3nc4c(Cl)cn(CC5CC5)c4c(-c4ccc(C5CC5)nc4)c3=O)ccc2n1` [Example 233, 7-chloro-5-(cyclopropylmethyl)-4-(6-cyclopropylpyridin-3-yl)-2-(2-methyl-2H-indazol-5-yl)-2,5-dihydro-3H-pyrrolo[3,2-c]pyridazin-3-one], the IC50 at MAT2A homodimer was below 100 nM; in the test on HCT116 MTAP+/+ it was 100 to 1000 nM; in the test on HCT116 MTAP−/−, below 100 nM; in test [1] it was below 100 nM.
Take `Cc1cn(CC2CC2)c2c(-c3ccc(C4CC4)nc3)c(=O)n(-c3ccc4nn(C)cc4c3)nc12` [Example 234, 5-(cyclopropylmethyl)-4-(6-cyclopropylpyridin-3-yl)-7-methyl-2-(2-methyl-2H-indazol-5-yl)-2,5-dihydro-3H-pyrrolo[3,2-c]pyridazin-3-one]: the IC50 (on MAT2A homodimer; in the test with HCT116 MTAP+/+; with HCT116 MTAP−/−; in test [1]) was below 100 nM throughout.
On to `Cn1cc2cc(-n3nc4c(F)cn(CC5CC5)c4c(-c4ccc(C5CC5)nc4)c3=O)ccc2n1` [Example 235, 5-(cyclopropylmethyl)-4-(6-cyclopropylpyridin-3-yl)-7-fluoro-2-(2-methyl-2H-indazol-5-yl)-2,5-dihydro-3H-pyrrolo[3,2-c]pyridazin-3-one], for which the IC50 on MAT2A homodimer was below 100 nM; in the test on HCT116 MTAP+/+, above 1000 nM; in the test on HCT116 MTAP−/−, below 100 nM; in test [1], below 100 nM.
Consider `CC(=O)c1cn(CC2CC2)c2c(-c3ccc(C4CC4)nc3)c(=O)n(-c3ccc4nn(C)cc4c3)nc12` [Example 236, 7-acetyl-5-(cyclopropylmethyl)-4-(6-cyclopropylpyridin-3-yl)-2-(2-methyl-2H-indazol-5-yl)-2,5-dihydro-3H-pyrrolo[3,2-c]pyridazin-3-one], for which the IC50 on MAT2A homodimer was below 100 nM; in the test on HCT116 MTAP+/+ it was above 1000 nM; in the test on HCT116 MTAP−/− it was below 100 nM; in test [1], below 100 nM.
Turning to `Cc1ccc(-c2c(=O)n(-c3ccc4nn(C)cc4c3)nc3c(F)cn(CC4CC4)c23)cn1` [Example 237, 5-(cyclopropylmethyl)-7-fluoro-2-(2-methyl-2H-indazol-5-yl)-4-(6-methylpyridin-3-yl)-2,5-dihydro-3H-pyrrolo[3,2-c]pyridazin-3-one], the IC50 at MAT2A homodimer was below 100 nM; in the test with HCT116 MTAP+/+, 100 to 1000 nM; with HCT116 MTAP−/− it was below 100 nM; in test [1] it was below 100 nM.
`Cn1cc2cc(-n3nc4c(Br)cn(CC5CC5)c4c(-c4ccc(C5CC5)nc4)c3=O)ccc2n1` [Example 238, 7-bromo-5-(cyclopropylmethyl)-4-(6-cyclopropylpyridin-3-yl)-2-(2-methyl-2H-indazol-5-yl)-2,5-dihydro-3H-pyrrolo[3,2-c]pyridazin-3-one]: the IC50 on MAT2A homodimer was below 100 nM; with HCT116 MTAP+/+ it was above 1000 nM; with HCT116 MTAP−/− it was below 100 nM; in test [1], below 100 nM.
As to `Cn1cc2cc(-n3nc4c(CO)cn(CC5CC5)c4c(-c4ccc(C5CC5)nc4)c3=O)ccc2n1` [Example 239, 5-(cyclopropylmethyl)-4-(6-cyclopropylpyridin-3-yl)-7-(hydroxymethyl)-2-(2-methyl-2H-indazol-5-yl)-2,5-dihydro-3H-pyrrolo[3,2-c]pyridazin-3-one], the IC50 (at MAT2A homodimer; in the test with HCT116 MTAP+/+; with HCT116 MTAP−/−; in test [1]) was below 100 nM each time.
For the compound `Cn1cc2cc(-n3nc4c(C(F)F)cn(CC5CC5)c4c(-c4ccc(C5CC5)nc4)c3=O)ccc2n1` [Example 240, 5-(cyclopropylmethyl)-4-(6-cyclopropylpyridin-3-yl)-7-(difluoromethyl)-2-(2-methyl-2H-indazol-5-yl)-2,5-dihydro-3H-pyrrolo[3,2-c]pyridazin-3-one], the IC50 was below 100 nM at MAT2A homodimer, 100 to 1000 nM with HCT116 MTAP+/+, below 100 nM in the test with HCT116 MTAP−/− and below 100 nM in test [1].
Take `Cn1nc2ccc(-n3nc4ccn(CC5CC5)c4c(-c4ccc(C5CC5)nc4)c3=O)cc2c1C(F)(F)F` [Example 241, 5-(cyclopropylmethyl)-4-(6-cyclopropylpyridin-3-yl)-2-(2-methyl-3-(trifluoromethyl)-2H-indazol-5-yl)-2,5-dihydro-3H-pyrrolo[3,2-c]pyridazin-3-one]: the IC50 at MAT2A homodimer was below 100 nM; in the test with HCT116 MTAP+/+ it was above 1000 nM; with HCT116 MTAP−/−, below 100 nM; in test [1], below 100 nM.
